From US20230150952A1, “TYPE 2 RYANODINE RECEPTOR ACTIVITY INHIBITOR” (JUNTENDO EDUCATIONAL FOUNDATION, priority 2020, published 2023) come the findings set out here.

One may read the pEC50 as the negative decadic logarithm of the EC50, by convention in mol/L.

pEC50: −log10 of the molar value.

type 2 ryanodine receptor, sequence (E9Q401 whole entry): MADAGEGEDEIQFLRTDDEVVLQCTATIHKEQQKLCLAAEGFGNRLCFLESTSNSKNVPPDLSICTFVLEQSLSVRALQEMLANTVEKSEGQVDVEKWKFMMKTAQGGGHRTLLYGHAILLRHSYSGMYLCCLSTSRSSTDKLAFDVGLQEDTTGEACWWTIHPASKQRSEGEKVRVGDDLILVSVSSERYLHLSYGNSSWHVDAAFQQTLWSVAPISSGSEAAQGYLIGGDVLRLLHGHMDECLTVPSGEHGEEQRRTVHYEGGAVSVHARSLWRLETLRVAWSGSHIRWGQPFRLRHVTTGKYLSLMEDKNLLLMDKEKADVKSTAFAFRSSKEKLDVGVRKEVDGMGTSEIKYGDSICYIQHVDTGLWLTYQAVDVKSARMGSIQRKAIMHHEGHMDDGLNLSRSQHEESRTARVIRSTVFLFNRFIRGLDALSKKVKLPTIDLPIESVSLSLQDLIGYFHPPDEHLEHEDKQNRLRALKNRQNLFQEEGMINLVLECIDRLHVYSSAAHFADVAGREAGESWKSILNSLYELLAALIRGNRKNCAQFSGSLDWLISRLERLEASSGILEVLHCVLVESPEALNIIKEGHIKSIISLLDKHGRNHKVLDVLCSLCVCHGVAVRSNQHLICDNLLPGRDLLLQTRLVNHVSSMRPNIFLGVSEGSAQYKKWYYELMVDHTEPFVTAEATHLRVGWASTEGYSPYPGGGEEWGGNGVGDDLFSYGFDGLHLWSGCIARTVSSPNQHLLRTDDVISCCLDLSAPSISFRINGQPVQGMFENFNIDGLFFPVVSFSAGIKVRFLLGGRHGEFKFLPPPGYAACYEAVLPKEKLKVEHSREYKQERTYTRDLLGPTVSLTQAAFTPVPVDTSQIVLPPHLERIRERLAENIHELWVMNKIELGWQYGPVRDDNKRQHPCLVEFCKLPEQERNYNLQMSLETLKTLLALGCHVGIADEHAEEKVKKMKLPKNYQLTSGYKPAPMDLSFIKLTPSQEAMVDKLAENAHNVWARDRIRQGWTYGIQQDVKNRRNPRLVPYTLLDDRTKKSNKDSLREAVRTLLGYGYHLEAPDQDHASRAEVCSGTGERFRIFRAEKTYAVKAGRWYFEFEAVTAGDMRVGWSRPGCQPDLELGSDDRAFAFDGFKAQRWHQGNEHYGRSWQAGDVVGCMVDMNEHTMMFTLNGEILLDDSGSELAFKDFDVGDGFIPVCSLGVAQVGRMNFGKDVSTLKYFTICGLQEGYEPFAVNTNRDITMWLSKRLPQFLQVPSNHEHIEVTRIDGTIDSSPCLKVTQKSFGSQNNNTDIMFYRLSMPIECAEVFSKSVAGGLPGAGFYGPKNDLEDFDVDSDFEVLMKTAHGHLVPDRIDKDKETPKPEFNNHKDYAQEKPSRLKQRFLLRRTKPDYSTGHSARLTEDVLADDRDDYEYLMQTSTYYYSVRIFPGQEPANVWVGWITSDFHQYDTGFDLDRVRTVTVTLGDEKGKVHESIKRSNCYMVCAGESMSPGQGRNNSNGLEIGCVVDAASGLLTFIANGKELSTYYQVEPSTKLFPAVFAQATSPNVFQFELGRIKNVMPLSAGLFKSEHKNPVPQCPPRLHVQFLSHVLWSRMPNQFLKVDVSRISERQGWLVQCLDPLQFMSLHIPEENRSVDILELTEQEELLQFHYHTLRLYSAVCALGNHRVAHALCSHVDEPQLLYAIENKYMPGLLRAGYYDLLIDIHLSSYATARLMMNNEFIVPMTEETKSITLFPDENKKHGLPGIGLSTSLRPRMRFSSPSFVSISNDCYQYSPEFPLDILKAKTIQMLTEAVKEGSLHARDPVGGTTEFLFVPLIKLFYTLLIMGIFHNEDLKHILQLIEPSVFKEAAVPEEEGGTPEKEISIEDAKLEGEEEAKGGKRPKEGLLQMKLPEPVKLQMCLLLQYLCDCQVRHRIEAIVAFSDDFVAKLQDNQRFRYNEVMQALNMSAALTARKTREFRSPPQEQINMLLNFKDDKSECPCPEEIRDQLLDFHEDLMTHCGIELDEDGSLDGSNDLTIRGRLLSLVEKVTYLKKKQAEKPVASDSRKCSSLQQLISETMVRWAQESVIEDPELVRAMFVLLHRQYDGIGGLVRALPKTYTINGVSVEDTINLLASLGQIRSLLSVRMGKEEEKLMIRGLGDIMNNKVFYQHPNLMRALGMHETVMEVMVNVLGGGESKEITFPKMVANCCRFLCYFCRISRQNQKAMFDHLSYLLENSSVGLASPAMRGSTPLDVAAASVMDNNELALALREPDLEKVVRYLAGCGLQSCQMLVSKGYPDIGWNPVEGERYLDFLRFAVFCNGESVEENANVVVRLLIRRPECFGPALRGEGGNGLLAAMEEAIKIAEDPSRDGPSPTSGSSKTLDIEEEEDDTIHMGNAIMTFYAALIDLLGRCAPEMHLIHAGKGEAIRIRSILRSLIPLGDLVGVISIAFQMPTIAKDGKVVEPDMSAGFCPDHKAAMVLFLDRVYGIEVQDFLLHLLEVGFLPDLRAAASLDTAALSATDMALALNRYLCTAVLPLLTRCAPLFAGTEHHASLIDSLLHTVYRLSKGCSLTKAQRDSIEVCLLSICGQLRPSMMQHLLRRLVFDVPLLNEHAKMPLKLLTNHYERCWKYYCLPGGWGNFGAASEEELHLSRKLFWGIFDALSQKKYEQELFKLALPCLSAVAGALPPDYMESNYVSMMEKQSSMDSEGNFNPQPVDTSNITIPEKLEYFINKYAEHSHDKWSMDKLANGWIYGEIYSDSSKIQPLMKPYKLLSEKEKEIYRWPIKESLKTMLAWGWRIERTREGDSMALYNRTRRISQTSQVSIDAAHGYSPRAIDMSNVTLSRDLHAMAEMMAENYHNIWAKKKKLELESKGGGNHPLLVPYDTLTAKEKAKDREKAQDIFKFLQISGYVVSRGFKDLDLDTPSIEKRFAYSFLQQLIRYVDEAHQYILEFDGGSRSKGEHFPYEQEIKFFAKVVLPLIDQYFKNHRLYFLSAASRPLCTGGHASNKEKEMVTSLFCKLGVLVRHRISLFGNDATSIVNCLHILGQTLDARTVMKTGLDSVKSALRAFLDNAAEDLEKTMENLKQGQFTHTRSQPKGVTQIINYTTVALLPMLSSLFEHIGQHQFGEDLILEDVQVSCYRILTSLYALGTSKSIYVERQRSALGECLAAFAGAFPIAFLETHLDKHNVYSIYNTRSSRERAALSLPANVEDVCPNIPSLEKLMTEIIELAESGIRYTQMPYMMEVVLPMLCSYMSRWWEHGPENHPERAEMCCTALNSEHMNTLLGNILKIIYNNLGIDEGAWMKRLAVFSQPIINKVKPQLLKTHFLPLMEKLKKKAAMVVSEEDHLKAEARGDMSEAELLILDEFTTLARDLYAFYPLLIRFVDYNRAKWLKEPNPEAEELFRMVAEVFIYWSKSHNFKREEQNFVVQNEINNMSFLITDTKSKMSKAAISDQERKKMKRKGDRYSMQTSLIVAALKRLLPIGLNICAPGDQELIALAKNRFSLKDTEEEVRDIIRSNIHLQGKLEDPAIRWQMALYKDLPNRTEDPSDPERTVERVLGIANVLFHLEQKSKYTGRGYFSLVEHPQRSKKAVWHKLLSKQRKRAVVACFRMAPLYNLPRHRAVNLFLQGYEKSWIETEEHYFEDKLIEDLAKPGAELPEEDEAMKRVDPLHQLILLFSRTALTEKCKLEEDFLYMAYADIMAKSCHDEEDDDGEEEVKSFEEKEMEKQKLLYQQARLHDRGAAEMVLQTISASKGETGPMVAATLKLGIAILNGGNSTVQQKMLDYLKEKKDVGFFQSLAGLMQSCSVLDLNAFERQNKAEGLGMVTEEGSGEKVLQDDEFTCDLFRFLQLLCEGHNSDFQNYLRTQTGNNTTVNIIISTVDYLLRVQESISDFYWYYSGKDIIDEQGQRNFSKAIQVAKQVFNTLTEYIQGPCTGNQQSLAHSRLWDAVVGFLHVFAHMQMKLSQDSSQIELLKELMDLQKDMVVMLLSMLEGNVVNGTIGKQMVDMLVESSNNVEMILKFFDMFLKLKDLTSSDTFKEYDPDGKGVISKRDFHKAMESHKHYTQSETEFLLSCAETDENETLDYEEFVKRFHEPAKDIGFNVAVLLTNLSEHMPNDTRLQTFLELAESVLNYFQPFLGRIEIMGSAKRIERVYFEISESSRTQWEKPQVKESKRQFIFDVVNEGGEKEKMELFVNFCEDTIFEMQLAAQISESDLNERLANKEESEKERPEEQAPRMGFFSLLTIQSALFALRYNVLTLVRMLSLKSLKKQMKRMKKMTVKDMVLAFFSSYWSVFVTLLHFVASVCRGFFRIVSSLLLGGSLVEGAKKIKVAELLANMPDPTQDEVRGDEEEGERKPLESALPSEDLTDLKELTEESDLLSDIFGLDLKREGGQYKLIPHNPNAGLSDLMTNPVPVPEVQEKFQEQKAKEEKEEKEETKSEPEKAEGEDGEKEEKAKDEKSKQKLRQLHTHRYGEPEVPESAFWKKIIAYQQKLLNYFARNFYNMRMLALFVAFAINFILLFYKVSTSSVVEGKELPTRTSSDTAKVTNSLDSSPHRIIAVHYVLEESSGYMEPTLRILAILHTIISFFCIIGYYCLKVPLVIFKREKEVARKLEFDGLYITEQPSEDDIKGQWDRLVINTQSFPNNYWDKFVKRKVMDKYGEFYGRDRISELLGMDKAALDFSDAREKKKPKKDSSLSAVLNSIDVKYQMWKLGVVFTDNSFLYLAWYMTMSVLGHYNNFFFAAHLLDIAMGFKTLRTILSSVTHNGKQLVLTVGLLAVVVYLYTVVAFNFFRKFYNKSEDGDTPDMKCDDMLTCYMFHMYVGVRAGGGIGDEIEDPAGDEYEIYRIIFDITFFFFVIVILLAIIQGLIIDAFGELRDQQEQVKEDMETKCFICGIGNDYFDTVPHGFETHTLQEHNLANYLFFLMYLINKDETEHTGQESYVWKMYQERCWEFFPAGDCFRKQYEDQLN

One assay deals with mouse having RyR2 I4093V mutation. In words: electrocardiogram of RyR2 mutation-harboring mouse before and after intraperitoneal administration. The assay is classed as in vivo. As to conditions: 0.3 mg/kg intraperitoneal; 5-15 minutes after administration; FIG. 2. An excerpt: In Riken BRC, male mice administered with N-ethyl-N-nitrosourea (ENU) were crossed with normal wild type females to obtain child mice (First generation: G1). These G1 mice were subjected to systematic phenotypic screening. […] As a result, a mouse having RyR2 I4093V mutation (RyR2 c.12277A>G (NM_023868.2) p.I4093V (NP_076357.2)) was found. The mouse was backcrossed with a normal wild type mouse (8 generations or more). As a result, mice conceivably having a mutation of RyR2 I4093V alone were obtained.
Compound 57 shown in Table 10 was dissolved in saline (0.9% aqueous NaCl solution) to prepare a 0.03-0.1 mg/mL solution containing compound 57. • (3) Measurement of Electrocardiogram of RyR2 Mutation-Harboring Mouse and Administration of Drug
The aforementioned mutant mice of 4-5 months old were subjected to anesthesia induction with 2% isoflurane. While maintaining the anesthetic state with 1% isoflurane, electrodes for electrocardiogram were attached to four limbs and electrocardiographical monitoring was continuously carried out. Before drug administration, electrocardiographical monitoring was carried out for 10 minutes. Then, the solution containing compound 57 prepared above was intraperitoneally injected so as to have a concentration of 0.3 mg/kg or 1 mg/kg. The electrocardiogram was recorded for further 15 minutes.
The time during which successive bigeminal pulse, trigeminal pulse or ventricular tachycardia (regarded as arrhythmia) occurred during 5-15 minutes after administration of compound 57, were summed up per individual and the ratio of time when arrhythmia occurs was obtained.
In the case of `CN(C(=O)Cn1nnc(-c2cc(F)cc(F)c2)n1)c1ccc(F)cc1` [Compound 57], the “occurrence of arrhythmia (ratio of time when arrhythmia occurs)” value is reported as “low”.

The assay is the same for the next values; noted with them: 0.3 mg/kg intraperitoneal; RyR2 I4093V mice; FIG. 1.
For the compound `CN(C(=O)Cn1nnc(-c2cc(F)cc(F)c2)n1)c1ccc(F)cc1` [Compound 57], the “ECG (bidirectional ventricular tachycardia before administration)” value was “went back to normal”.

The same assay, now with this note: 1 mg/kg intraperitoneal; 5-15 minutes after administration; FIG. 2.
For the compound `CN(C(=O)Cn1nnc(-c2cc(F)cc(F)c2)n1)c1ccc(F)cc1` [Compound 57], the “occurrence of arrhythmia (ratio of time when arrhythmia occurs)” value is recorded as “low”.

A further assay addresses type 2 ryanodine receptor (Mus musculus, UniProt E9Q401). In words: type 2 ryanodine receptor activity inhibitory effect: endoplasmic reticulum Ca2+ (R-CEPIA1er fluorescence) in RyR-expressing HEK293 cells. The assay is classed as cell-based. As to conditions: final concentration 10^-9 to 10^-4 M; Hill equation fit; ER Ca2+ fluorescence in HEK293 cells. The protocol:
The EC50 value of each of the compounds shown in Table 13 with respect to the type 2 ryanodine receptor activity inhibitory effect, was measured in accordance with the following procedure.
cDNA of RyR2 was cloned from the heart muscle of a mouse by a PCR method and introduced into an expression vector (pcDNA5/FRT/TO) for Flp-In T-REX having hygromycin resistance. The vector is a tetracycline-inducible expression (Tet-On) vector and induces expression of RyR in the presence of doxycycline.
Also, R-CEPIA1er described in Nat. Commun., 2014, 5: 4153 was introduced into a neomycin resistant expression vector, pCMV/myc/ER. This vector constantly expresses R-CEPIA1er.
As HEK293 cells, Flp-In T-REX 293 cells corresponding to the Tet-On inducible system were prepared. The cells were cultured in a CO2 incubator at 37° C.
A pathogenic mutant-type RyR gene was introduced into Flp-In T-REX 293 cells by a lipofection method. The cells were cultured in a medium containing hygromycin for 10 to 14 days to establish a pathogenic mutant RyR stably expressing strain. Into the pathogenic mutant RyR stably expressing strain, an R-CEPIA1er expression vector was introduced by a lipofection method. The strain was cultured in a medium containing G418 to establish a stable dual expression strain expressing a pathogenic mutant-type RyR gene and R-CEPIA1er.
A wild-type RyR gene was introduced into Flp-In T-REX 293 cells by a lipofection method. The cells were cultured in a medium containing hygromycin for 10 to 14 days to establish a RyR stably expressing strain. Into the RyR stably expressing strain, an R-CEPIA1er expression vector was introduced by a lipofection method. The strain was cultured in a medium containing G418 to establish a stable dual expression strain expressing a wild-type RyR gene and R-CEPIA1er.
The cultured cells expressing a pathogenic mutant RyR and R-CEPIA1er and the cultured cells expressing wild type RyR and R-CEPIA1er were separately cultured in plastic dishes at 37° C. for 24 hours. Then, the medium was exchanged with a medium containing doxycycline and the cells were further cultured for 24 hours. Fluorescence measurement was carried out by use of FlexStation. R-CEPIA1er was excited at 560 nm to acquire fluorescence at 610 nm. Fluorescence was acquired every 10 seconds for 300 seconds. The compounds shown in Table 13 each were added 60 seconds after initiation, and Ca^2+ concentration in the fluorescent endoplasmic reticulum was measured.
Inhibitory effects of the compounds on type 2 ryanodine receptor activity shown in Table 13 each were measured in the range of a final concentration of 10^−9 to 10^−4 M by the methods above. Based on the measurement results, a dose-response curve approximating the Hill equation was obtained by the least squares method. In this manner, EC50 values were calculated.
On to `CN(C(=O)Cn1nnc(-c2ccccc2)n1)c1ccccc1` [Compound 35], for which the pEC50 is 6.17.

The compound `COc1ccc(N(C)C(=S)Cn2nnc(-c3cccc(OC)c3)n2)cc1` [Compound 67] gave a pEC50 of 7.39. Same read-out and setting: next, `CCN(C(=O)Cn1nnc(-c2ccccc2)n1)c1ccc(OC)cc1` [Compound 59]: 5.87; `COc1ccc(-c2nnn(CC(=O)N(C)c3ccccc3)n2)cc1` [Compound 47]: 5.90. Turning to `CN(C(=O)Cn1nnc(-c2cc(F)cc(F)c2)n1)c1ccc(F)cc1` [Compound 57], the negative-log EC50 (pEC50) is 7.82. Same read-out and setting: for `COc1cccc(-c2nnn(CC(=O)N(C)c3ccc(F)cc3)n2)c1` [Compound 49] the value was 7.36; for `CCN(C(=O)Cn1nnc(-c2ccccc2)n1)c1ccccc1` [Compound 58], 5.26; for `COc1ccc(N(C)C(=O)Cn2nnc(-c3ccccc3)n2)cc1` [Compound 41], 6.81. On the same count and under the same terms, for `COc1cccc(N(C)C(=O)Cn2nnc(-c3ccccc3)n2)c1` [Compound 40] the value was 5.08; for `CN(C(=O)Cn1nnc(-c2cccc(F)c2)n1)c1ccc(F)cc1` [Compound 51], 7.31; for `COc1cccc(-c2nnn(CC(=O)N(C)c3ccccc3)n2)c1` [Compound 46], 6.83.

Turning to `COc1cccc(-c2nnn(CC(=O)N(C)c3ccc(F)c(OC)c3)n2)c1` [Compound 53], the pEC50 is 7.29. Same read-out and setting: for `CN(C(=S)Cn1nnc(-c2cccc(F)c2)n1)c1ccc(F)cc1` [Compound 70] the value was 7.48.

Regarding `CCN(C(=O)Cn1nnc(-c2ccc(OC(F)(F)F)cc2)n1)c1ccc(F)cc1` [Compound 63], the negative logarithm of the EC50 (pEC50) was 5.98.

As for `CCCN(C(=O)Cn1nnc(-c2ccccc2)n1)c1ccccc1` [Compound 66], the negative-log EC50 (pEC50) was 4.40. Still for that read-out and setting: next, `Cc1ccc(N(C)C(=O)Cn2nnc(-c3ccccc3)n2)cc1` [Compound 38]: 5.56. Still for that read-out and setting: for `CCN(C(=O)Cn1nnc(-c2ccccc2)n1)c1ccc(F)cc1` [Compound 60] the value was 6.11. As to `COc1cccc(-c2nnn(CC(=O)N(C)c3ccc4c(c3)OCO4)n2)c1` [Compound 54], the negative-log EC50 (pEC50) is 7.32.

Take `COc1ccc(N(C)C(=O)Cn2nnc(-c3cccc(F)c3)n2)cc1` [Compound 50]: the pEC50 was 7.44. Same read-out and setting: next, `CCN(C(=O)Cn1nnc(-c2ccccc2)n1)c1ccc(OC(F)(F)F)cc1` [Compound 61]: 4.35; `COc1ccc(N(C)C(=S)Cn2nnc(-c3cccc(F)c3)n2)cc1` [Compound 69]: 7.41. In the case of `COc1ccccc1-c1nnn(CC(=O)N(C)c2ccccc2)n1` [Compound 45], the pEC50 was 5.47. Still for that read-out and setting: for `COc1cccc(-c2nnn(CC(=S)N(C)c3ccc(F)cc3)n2)c1` [Compound 68] the value was 7.51.

The compound `COc1ccc(N(C)C(=O)Cn2nnc(-c3cccc(OC)c3)n2)cc1` [Compound 48] had a negative logarithm of the EC50 (pEC50) of 7.37.

In turn, `Cc1cccc(N(C)C(=O)Cn2nnc(-c3ccccc3)n2)c1` [Compound 37] had a pEC50 of 6.22. Same read-out and setting: for `CCN(C(=O)Cn1nnc(-c2ccc(OC)cc2)n1)c1ccc(OC)cc1` [Compound 62] the value was 5.57.
